46 compounds from patent US12509459B2, “Inhibitors of NLRP3 inflammasome” (BioAge Labs, Inc., priority 2024, dated 2025) can be followed below.

One may read the IC50 as the concentration needed to halve the response being measured. A lower IC50 goes with greater potency.

Sequence of NLRP3 (Q96P20 whole entry): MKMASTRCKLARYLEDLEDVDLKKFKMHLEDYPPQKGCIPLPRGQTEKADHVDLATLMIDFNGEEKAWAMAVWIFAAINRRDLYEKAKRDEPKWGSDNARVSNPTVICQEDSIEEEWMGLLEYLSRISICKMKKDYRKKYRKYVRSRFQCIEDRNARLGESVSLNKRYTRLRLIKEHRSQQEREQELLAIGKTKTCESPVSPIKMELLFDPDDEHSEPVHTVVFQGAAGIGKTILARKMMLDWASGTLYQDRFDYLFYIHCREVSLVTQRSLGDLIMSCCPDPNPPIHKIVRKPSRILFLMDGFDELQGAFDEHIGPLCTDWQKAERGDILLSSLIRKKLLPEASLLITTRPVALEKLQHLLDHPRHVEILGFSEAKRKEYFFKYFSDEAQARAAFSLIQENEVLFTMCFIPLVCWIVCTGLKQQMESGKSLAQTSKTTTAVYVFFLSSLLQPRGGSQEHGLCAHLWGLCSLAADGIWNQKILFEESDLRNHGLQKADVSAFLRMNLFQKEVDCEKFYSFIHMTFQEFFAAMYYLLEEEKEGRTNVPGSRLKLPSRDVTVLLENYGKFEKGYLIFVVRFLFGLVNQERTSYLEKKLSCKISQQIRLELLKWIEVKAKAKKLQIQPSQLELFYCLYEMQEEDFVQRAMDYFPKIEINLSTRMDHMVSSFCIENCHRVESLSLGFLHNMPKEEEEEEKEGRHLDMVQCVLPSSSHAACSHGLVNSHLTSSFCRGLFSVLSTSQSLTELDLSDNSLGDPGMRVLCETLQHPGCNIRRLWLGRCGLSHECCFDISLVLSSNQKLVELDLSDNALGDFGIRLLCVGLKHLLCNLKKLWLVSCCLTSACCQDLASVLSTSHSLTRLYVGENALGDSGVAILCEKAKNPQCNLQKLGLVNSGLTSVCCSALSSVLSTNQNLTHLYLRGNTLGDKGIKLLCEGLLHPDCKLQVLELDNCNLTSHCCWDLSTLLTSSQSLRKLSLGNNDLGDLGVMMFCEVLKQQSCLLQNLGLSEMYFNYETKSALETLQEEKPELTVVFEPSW

This test addresses NLRP3 (Homo sapiens, UniProt Q96P20). In words: THP-1 cell-based NLRP3 activation assay. On the set-up: endogenous in cells; host or cells: THP-1 cells (PMA-differentiated, LPS-primed, nigericin-stimulated). The following applies: PMA-differentiated THP-1 cells, LPS 100 ng/mL then 10 μM nigericin. The procedure: THP-1 cells are cultured in complete media (CM) until they reach logarithmic growth and achieve a viability >90%. CM is composed of RPMI-1640 (+Glutamax)/10% fetal bovine serum/55 μM β-mercaptoethanol/pen/strep. Cells are spun down and resuspended to 1,000,000 cells/mL in CM containing either 20 nM or 500 nM PMA. 150,000 cells (150 μL) are then added to each well of a 96-well TC plate and incubated for either 24 hr or 3 hr, respectively, in a standard cell culture incubator (37° C.; 5% CO2). After this incubation, the plate is tilted and media carefully removed. 200 μL of CM containing 100 ng/mL LPS is then added to the wells and the cells incubated an additional 3 hrs. The media is again removed and replaced with Opti-Mem medium containing pre-determined dilutions of test compounds in replicate wells. After a 30 min incubation, 10 μM nigericin (final concentration) in Opti-Mem medium with the corresponding concentration of compound is added to the wells for an additional 1 hr. Positive control wells contain 10 μM nigericin in Opti-Mem in the absence of test compound, while negative control wells contain Opti-Mem only. […] Once supernatants are removed, the relative viability of adherent cells in the 96-well TC plate are determined using a CellTiter-Glo® luminescent cell viability assay (Promega).
`CCOc1cc(C(=O)N(C)[C@H](CO)c2cnc(C)c3cn[nH]c23)ccc1-c1cccc(Cl)c1` [Compound 019]: the IC50 was under 100 nM.
On to `CCOc1cc(C(=O)N(C)[C@H](CN(C)C)c2cncc3cn[nH]c23)ccc1-c1cccc(F)c1` [Compound 121], for which the IC50 is under 100 nM.
Take `CCOc1cc(C(=O)N(C)[C@H](CCN(C)C)c2cncc3cn[nH]c23)ccc1C(C)C` [Compound 158]: the IC50 is 1000 to 15000 nM.
Compound `CCOc1cc(C(=O)N(C)[C@H](CCN(C)CCF)c2cncc3cn[nH]c23)ccc1-c1cccc(Cl)c1` [Compound 067] came in with an IC50 of under 100 nM.
The compound `CCOc1cc(C(=O)N(C)[C@@H](c2cncc3cn[nH]c23)C2CN(CC)C2)ccc1-c1cccc(C)c1` [Compound 169] registered an IC50 of under 100 nM.
Consider `CCOc1cc(C(=O)N(C)[C@H](CO)c2cnc(CO)c3cn[nH]c23)ccc1-c1cccc(F)c1` [Compound 037], for which the IC50 was under 100 nM.
The compound `CCOc1cc(C(=O)N(C)[C@H](CCN(C)C)c2cncc3cn[nH]c23)ccc1C1CC1` [Compound 146] yielded an IC50 of 100 to 500 nM.
For the compound `CCOc1cc(C(=O)N(Cc2cncc3cn[nH]c23)C2CC(N(C)C)C2)ccc1-c1ccccc1` (stereo not shown) [Compound 243], the IC50 lay within 1000 to 15000 nM.
For the compound `CCOc1cc(C(=O)N(C)[C@H](CCN(C)C)c2cnc(C)c3cn[nH]c23)ccc1-c1ccccc1` [Compound 074], the IC50 was under 100 nM.
Turning to `CCOc1cc(C(=O)N(C)[C@H](CO)c2cncc3cn[nH]c23)ccc1-c1ccccc1` [Compound 005], the IC50 is under 100 nM.
Compound `CCOc1cc(C(=O)N(C)[C@H](CCN(C)C)c2ccc(C)c3cn[nH]c23)ccc1-c1cccc(F)c1` [Compound 200] returned an IC50 of 100 to 500 nM.
For `CCOc1cc(C(=O)N(C)[C@H](c2cncc3cn[nH]c23)C2CN(C)C2)ccc1-c1cccc(C#N)c1` [Compound 144], the IC50 is under 100 nM.
Next, `CCOc1cc(C(=O)N(C)[C@@H](CN(CC)CC)c2cncc3cn[nH]c23)ccc1-c1cccc(F)c1` [Compound 128]: under 100 nM.
`CCOc1cc(C(=O)N(C)[C@@H](c2cncc3cn[nH]c23)[C@@H]2CCNC2)ccc1-c1cccc(F)c1` (single isomer, unassigned) [Compound 087] returned an IC50 of under 100 nM.
The compound `CCOc1cc(C(=O)N(Cc2cccc3cn[nH]c23)[C@H]2C[C@@H](NC)C2)ccc1-c1cccc(F)c1` [Compound 252] came in with an IC50 of under 100 nM.
On to `CCOc1cc(C(=O)N(C)[C@H](CCN(C)C)c2cncc3cn[nH]c23)ccc1C(C)CC` (stereo partly shown) [Compound 161], for which the IC50 was under 100 nM.
`C=CC(=O)NCC[C@H](c1cncc2cn[nH]c12)N(C)C(=O)c1ccc(-c2cccc(F)c2)c(OCC)c1` [Compound 080] registered an IC50 of under 100 nM.
The compound `CCOc1cc(C(=O)N(C)[C@H](c2cncc3cn[nH]c23)C2CN(CC)C2)ccc1-c1cccc(C)c1` [Compound 171] showed an IC50 of under 100 nM.
Next, `CCOc1cc(C(=O)N(C)[C@H](CCN(CC)CC)c2cncc3cn[nH]c23)ccc1-c1cccc(F)c1` [Compound 103]: under 100 nM.
`CCOc1cc(C(=O)N(Cc2cncc3cn[nH]c23)C2CC(N(C)C)C2)ccc1-c1cccc(F)c1` (stereo not shown) [Compound 240] had a concentration for half-maximal inhibition (IC50) of 500 to 1000 nM.
Consider `CCOc1cc(C(=O)N(Cc2cncc3cn[nH]c23)[C@H]2C[C@@H](N(C)C)C2)ccc1-c1ccccc1` [Compound 245], for which the IC50 is under 100 nM.
In turn, `CN(C)CC[C@H](c1cccc2cn[nH]c12)N(C)C(=O)c1ccc(-c2ccccc2)c(OC2CC2)c1` [Compound 199] showed an IC50 of under 100 nM.
In the case of `CCOc1cc(C(=O)N(Cc2cncc3cn[nH]c23)C2CC(N(C)C)C2)ccc1-c1cccc(Cl)c1` (stereo not shown) [Compound 242], the IC50 lay in the range of 100 to 500 nM.
In turn, `CCOc1cc(C(=O)N(C)[C@@H](CCO)c2cncc3cn[nH]c23)ccc1-c1ccccc1` [Compound 010] displayed an IC50 of 1000 to 15000 nM.
The value for `CCOc1cc(C(=O)N(CCN2CCCC(F)C2)Cc2cncc3cn[nH]c23)ccc1-c1cccc(F)c1` (stereo not shown) [Compound 114] was under 100 nM; that for `CCOc1cc(C(=O)N(C)[C@@H](c2cnc(C)c3cn[nH]c23)[C@@H](C)O)ccc1-c1cccc(Cl)c1` [Compound 024] was under 100 nM; that for `CCOc1cc(C(=O)N(C)[C@H](CC[N+]([O-])(CC)CC)c2cccc3cn[nH]c23)ccc1-c1cccc(F)c1` [Compound 216] was under 100 nM.
The compound `CCOc1cc(C(=O)N(C)[C@H](CN(C)C)c2cccc3cn[nH]c23)ccc1-c1cccc(F)c1` [Compound 256] gave an IC50 of 100 to 500 nM.
In turn, `CCOc1cc(C(=O)N(Cc2cncc3cn[nH]c23)C2CC(NC)C2)ccc1-c1cccc(Cl)c1` (stereo not shown) [Compound 236] gave an IC50 of under 100 nM.
Compound `CCOc1cc(C(=O)N(Cc2cncc3cn[nH]c23)[C@H]2CC[C@H]2N)ccc1-c1cccc(F)c1` [Compound 300] returned an IC50 of 100 to 500 nM.
Regarding `CCOc1cc(C(=O)N(C)[C@@H](CN(C)C)c2cncc3cn[nH]c23)ccc1-c1cccc(Cl)c1` [Compound 126], the IC50 was under 100 nM.
In the case of `CCOc1cc(C(=O)N(C)C(CN(CC)CC)c2cccc3cn[nH]c23)ccc1-c1cccc(F)c1` (stereo not shown) [Compound 261], the half-inhibitory concentration (IC50) is under 100 nM.
In turn, `CCOc1cc(C(=O)N(C)[C@H](c2cncc3cn[nH]c23)C2CN(C(C)C)C2)ccc1-c1ccccc1` [Compound 132] registered an IC50 of 1000 to 15000 nM.
Regarding `CCOc1cc(C(=O)N(C)[C@@H](CO)c2cnc(C)c3cn[nH]c23)ccc1-c1cccc(F)c1` [Compound 027], the IC50 is under 100 nM.
As for `CCOc1cc(C(=O)N(Cc2cncc3cn[nH]c23)[C@H]2C[C@@H](N(C)C)C2)ccc1-c1cccc(C#N)c1` [Compound 290], the IC50 is under 100 nM.
Turning to `CCOc1cc(C(=O)N(Cc2cnc(C)c3cn[nH]c23)C(C)CO)ccc1-c1cccc(F)c1` (stereo not shown) [Compound 052], the IC50 was over 15000 nM.
`CCOc1cc(C(=O)N(C)[C@H](CCN(C)C)c2cccc3cn[nH]c23)ccc1-c1cccc(Cl)c1` [Compound 213] registered an IC50 of under 100 nM.
Next, `CCOc1cc(C(=O)N(C)[C@H](CCN2CCC(F)(F)C2)c2cncc3cn[nH]c23)ccc1-c1cccc(F)c1` [Compound 100]: under 100 nM; `CCOc1cc(C(=O)N(C)[C@H](c2cncc3cn[nH]c23)[C@@H]2CCNC2)ccc1-c1cccc(F)c1` (single isomer, unassigned) [Compound 088]: 100 to 500 nM; `CCOc1cc(C(=O)N(CCN2CCCC2)Cc2cncc3cn[nH]c23)ccc1-c1cccc(F)c1` [Compound 119]: under 100 nM.
For `CCOc1cc(C(=O)N(C)[C@H](CCN(C)C)c2ccc(C)c3cn[nH]c23)ccc1-c1ccccc1` [Compound 204], the IC50 is 100 to 500 nM.
Consider `CCOc1cc(C(=O)N(CCO)Cc2cnc(C)c3cn[nH]c23)ccc1-c1cccc(F)c1` [Compound 051], for which the IC50 was under 100 nM.
In turn, `CN(C(=O)c1ccc(-c2cccc(F)c2)c(OC2CC2)c1)[C@H](CCN1CCC1)c1cncc2cn[nH]c12` [Compound 225] yielded an IC50 of under 100 nM.
Consider `CCOc1cc(C(=O)N(C)[C@H](CCNC)c2cncc3cn[nH]c23)ccc1-c1ccccc1` [Compound 193], for which the IC50 is under 100 nM.
The value for `CCOc1cc(C(=O)N(C)[C@@H](CCN(C)C)c2cccc3cn[nH]c23)ccc1-c1ccccc1` [Compound 212] was under 100 nM.
In the case of `CCOc1cc(C(=O)N(C)[C@H](c2cncc3cn[nH]c23)C2CNC2)ccc1-c1cccc(C)c1` [Compound 170], the IC50 was under 100 nM.
